From PubChem BioAssay (NCI)
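Protocol summary: plate cells (96-well), add compound at 5 concentrations, incubate 48 h, interpolate endpoints linearly. Abbreviation: GI50, concentration required for 50% inhibition of growth. Definition used: TGI = concentration required for complete inhibition of growth.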

Columns and labels:
Test in all cases: NCI anticancer screen, dose series, 48 h
786-0 renal = system: 786-0 renal
A498 renal = system: A498 renal
A549 NSCLC = system: A549 NSCLC
ACHN renal = system: ACHN renal
BT-549 breast = system: BT-549 breast
CAKI-1 renal = system: CAKI-1 renal
CCRF-CEM leukemia = system: CCRF-CEM leukemia
COLO 205 colon = system: COLO 205 colon
DU-145 prostate = system: DU-145 prostate
EKVX NSCLC = system: EKVX NSCLC
HCC-2998 colon = system: HCC-2998 colon
HCT-116 colon = system: HCT-116 colon
HCT-15 colon = system: HCT-15 colon
HL-60(TB) leukemia = system: HL-60(TB) leukemia
HOP-62 NSCLC = system: HOP-62 NSCLC
HOP-92 NSCLC = system: HOP-92 NSCLC
HS 578T breast = system: HS 578T breast
HT29 colon = system: HT29 colon
IGROV1 ovarian = system: IGROV1 ovarian
K-562 leukemia = system: K-562 leukemia
KM12 colon = system: KM12 colon
LOX IMVI melanoma = system: LOX IMVI melanoma
M14 melanoma = system: M14 melanoma
MALME-3M melanoma = system: MALME-3M melanoma
MCF7 breast = system: MCF7 breast
MDA-MB-231 breast = system: MDA-MB-231 breast
MDA-MB-435 = system: MDA-MB-435
MOLT-4 leukemia = system: MOLT-4 leukemia
NCI-H226 lung = system: NCI-H226 lung
NCI-H23 lung = system: NCI-H23 lung
NCI-H460 lung = system: NCI-H460 lung
NCI-H522 lung = system: NCI-H522 lung
NCI/ADR-RES ovarian = system: NCI/ADR-RES ovarian
OVCAR-3 ovarian = system: OVCAR-3 ovarian
OVCAR-4 ovarian = system: OVCAR-4 ovarian
OVCAR-5 ovarian = system: OVCAR-5 ovarian
OVCAR-8 ovarian = system: OVCAR-8 ovarian
PC-3 prostate = system: PC-3 prostate
RPMI-8226 leukemia = system: RPMI-8226 leukemia
RXF 393 renal = system: RXF 393 renal
SF-268 CNS = system: SF-268 CNS
SF-295 CNS = system: SF-295 CNS
SF-539 CNS = system: SF-539 CNS
SK-MEL-2 melanoma = system: SK-MEL-2 melanoma
SK-MEL-28 melanoma = system: SK-MEL-28 melanoma
SK-MEL-5 melanoma = system: SK-MEL-5 melanoma
SK-OV-3 ovarian = system: SK-OV-3 ovarian
SN12C renal = system: SN12C renal
SNB-19 CNS = system: SNB-19 CNS
SNB-75 CNS = system: SNB-75 CNS
SR leukemia = system: SR leukemia
SW-620 colon = system: SW-620 colon
T-47D breast = system: T-47D breast
TK-10 renal = system: TK-10 renal
U251 CNS = system: U251 CNS
UACC-257 melanoma = system: UACC-257 melanoma
UACC-62 melanoma = system: UACC-62 melanoma
UO-31 renal = system: UO-31 renal

How did the GI50 (786-0 renal) turn out when `O=S(=O)(Nc1ccc(Cl)c(Cl)c1)c1ccc(-c2cnc(C3CC3)o2)cc1` was run?
The GI50 was 668 nM.

What about the TGI (786-0 renal) of the same molecule?
The TGI was 18800 nM.

What about the GI50 (A498 renal) of the same molecule?
The GI50 was 273 nM.

And the TGI (A498 renal)?
Its TGI is 2900 nM.

What about the GI50 (A549 NSCLC) of the same molecule?
The GI50 was 672 nM.

And the TGI (A549 NSCLC)?
Its TGI is 17200 nM.

What about the GI50 (ACHN renal) of the same molecule?
Its GI50 is 606 nM.

And the TGI (ACHN renal)?
Its TGI is 30700 nM.

And the GI50 (BT-549 breast)?
The GI50 was 911 nM.

And the TGI (BT-549 breast)?
The TGI was 18200 nM.

What about the GI50 (CAKI-1 renal) of the same molecule?
Its GI50 is 384 nM.

What about the TGI (CAKI-1 renal) of the same molecule?
Its TGI is 16700 nM.

What about the GI50 (CCRF-CEM leukemia) of the same molecule?
The GI50 was 439 nM.

What about the TGI (CCRF-CEM leukemia) of the same molecule?
The TGI was over 77500 nM.

And the GI50 (COLO 205 colon)?
Its GI50 is 501 nM.

And the TGI (COLO 205 colon)?
Its TGI is 3360 nM.

What about the GI50 (DU-145 prostate) of the same molecule?
The GI50 was 736 nM.

What about the TGI (DU-145 prostate) of the same molecule?
Its TGI is 13900 nM.

What about the GI50 (EKVX NSCLC) of the same molecule?
Its GI50 is 1150 nM.

What about the TGI (EKVX NSCLC) of the same molecule?
The TGI was 30400 nM.

And the GI50 (HCC-2998 colon)?
Its GI50 is 1810 nM.

And the TGI (HCC-2998 colon)?
Its TGI is 10300 nM.

What about the GI50 (HCT-116 colon) of the same molecule?
Its GI50 is 458 nM.

And the TGI (HCT-116 colon)?
The TGI was 13900 nM.

What about the GI50 (HCT-15 colon) of the same molecule?
The GI50 was 405 nM.

What about the TGI (HCT-15 colon) of the same molecule?
The TGI was 15700 nM.

And the GI50 (HL-60(TB) leukemia)?
The GI50 was 274 nM.

And the TGI (HL-60(TB) leukemia)?
The TGI was 3470 nM.

What about the GI50 (HOP-62 NSCLC) of the same molecule?
Its GI50 is 524 nM.

And the TGI (HOP-62 NSCLC)?
Its TGI is 16700 nM.

And the GI50 (HOP-92 NSCLC)?
The GI50 was 367 nM.

What about the TGI (HOP-92 NSCLC) of the same molecule?
Its TGI is 12500 nM.

What about the GI50 (HS 578T breast) of the same molecule?
The GI50 was 455 nM.

And the TGI (HS 578T breast)?
The TGI was 30700 nM.

What about the GI50 (HT29 colon) of the same molecule?
Its GI50 is 403 nM.

What about the TGI (HT29 colon) of the same molecule?
Its TGI is 16800 nM.

What about the GI50 (IGROV1 ovarian) of the same molecule?
The GI50 was 587 nM.

What about the TGI (IGROV1 ovarian) of the same molecule?
The TGI was 15800 nM.

And the GI50 (K-562 leukemia)?
The GI50 was 280 nM.

And the TGI (K-562 leukemia)?
Its TGI is over 38300 nM.

And the GI50 (KM12 colon)?
The GI50 was 371 nM.

What about the TGI (KM12 colon) of the same molecule?
The TGI was 15400 nM.

And the GI50 (LOX IMVI melanoma)?
Its GI50 is 586 nM.

What about the TGI (LOX IMVI melanoma) of the same molecule?
Its TGI is 19300 nM.

What about the GI50 (M14 melanoma) of the same molecule?
Its GI50 is 418 nM.

And the TGI (M14 melanoma)?
Its TGI is 13100 nM.

And the GI50 (MALME-3M melanoma)?
Its GI50 is 2670 nM.

What about the TGI (MALME-3M melanoma) of the same molecule?
Its TGI is 25800 nM.

And the GI50 (MCF7 breast)?
Its GI50 is 289 nM.

And the TGI (MCF7 breast)?
Its TGI is 18300 nM.

And the GI50 (MDA-MB-231 breast)?
The GI50 was 1590 nM.

And the TGI (MDA-MB-231 breast)?
The TGI was 15800 nM.

And the GI50 (MDA-MB-435)?
Its GI50 is 139 nM.

What about the TGI (MDA-MB-435) of the same molecule?
The TGI was 674 nM.

What about the GI50 (MOLT-4 leukemia) of the same molecule?
Its GI50 is 659 nM.

What about the TGI (MOLT-4 leukemia) of the same molecule?
Its TGI is over 63600 nM.

And the GI50 (NCI-H226 lung)?
Its GI50 is 1820 nM.

And the TGI (NCI-H226 lung)?
The TGI was 19500 nM.

And the GI50 (NCI-H23 lung)?
The GI50 was 1330 nM.

And the TGI (NCI-H23 lung)?
The TGI was 19600 nM.

What about the GI50 (NCI-H460 lung) of the same molecule?
The GI50 was 368 nM.

And the TGI (NCI-H460 lung)?
The TGI was 11600 nM.

And the GI50 (NCI-H522 lung)?
Its GI50 is 329 nM.

What about the TGI (NCI-H522 lung) of the same molecule?
Its TGI is 15100 nM.

What about the GI50 (NCI/ADR-RES ovarian) of the same molecule?
The GI50 was 345 nM.

What about the TGI (NCI/ADR-RES ovarian) of the same molecule?
The TGI was 4910 nM.

And the GI50 (OVCAR-3 ovarian)?
Its GI50 is 277 nM.

And the TGI (OVCAR-3 ovarian)?
The TGI was 967 nM.

And the GI50 (OVCAR-4 ovarian)?
The GI50 was 1160 nM.

And the TGI (OVCAR-4 ovarian)?
The TGI was 20600 nM.

And the GI50 (OVCAR-5 ovarian)?
The GI50 was 2320 nM.

What about the TGI (OVCAR-5 ovarian) of the same molecule?
Its TGI is 17300 nM.

What about the GI50 (OVCAR-8 ovarian) of the same molecule?
Its GI50 is 1230 nM.

What about the TGI (OVCAR-8 ovarian) of the same molecule?
Its TGI is 20100 nM.

And the GI50 (PC-3 prostate)?
Its GI50 is 474 nM.

And the TGI (PC-3 prostate)?
Its TGI is 14500 nM.

What about the GI50 (RPMI-8226 leukemia) of the same molecule?
The GI50 was 612 nM.

And the TGI (RPMI-8226 leukemia)?
Its TGI is 43500 nM.

What about the GI50 (RXF 393 renal) of the same molecule?
The GI50 was 376 nM.

And the TGI (RXF 393 renal)?
The TGI was 8440 nM.

What about the GI50 (SF-268 CNS) of the same molecule?
Its GI50 is 1260 nM.

And the TGI (SF-268 CNS)?
Its TGI is 23800 nM.

What about the GI50 (SF-295 CNS) of the same molecule?
The GI50 was 337 nM.

What about the TGI (SF-295 CNS) of the same molecule?
Its TGI is 11400 nM.

And the GI50 (SF-539 CNS)?
The GI50 was 399 nM.

What about the TGI (SF-539 CNS) of the same molecule?
Its TGI is 3640 nM.

What about the GI50 (SK-MEL-2 melanoma) of the same molecule?
Its GI50 is 2430 nM.

What about the TGI (SK-MEL-2 melanoma) of the same molecule?
Its TGI is 24400 nM.

What about the GI50 (SK-MEL-28 melanoma) of the same molecule?
The GI50 was 4190 nM.

And the TGI (SK-MEL-28 melanoma)?
The TGI was 21500 nM.

And the GI50 (SK-MEL-5 melanoma)?
The GI50 was 478 nM.

And the TGI (SK-MEL-5 melanoma)?
The TGI was 14600 nM.

What about the GI50 (SK-OV-3 ovarian) of the same molecule?
Its GI50 is 713 nM.

What about the TGI (SK-OV-3 ovarian) of the same molecule?
Its TGI is 39700 nM.

What about the GI50 (SN12C renal) of the same molecule?
Its GI50 is 761 nM.

What about the TGI (SN12C renal) of the same molecule?
Its TGI is 17300 nM.

And the GI50 (SNB-19 CNS)?
The GI50 was 534 nM.

What about the TGI (SNB-19 CNS) of the same molecule?
The TGI was 17100 nM.

And the GI50 (SNB-75 CNS)?
Its GI50 is 138 nM.

What about the TGI (SNB-75 CNS) of the same molecule?
Its TGI is 558 nM.

What about the GI50 (SR leukemia) of the same molecule?
Its GI50 is 122 nM.

And the TGI (SR leukemia)?
The TGI was 62600 nM.

What about the GI50 (SW-620 colon) of the same molecule?
The GI50 was 336 nM.

And the TGI (SW-620 colon)?
Its TGI is 15300 nM.

And the GI50 (T-47D breast)?
Its GI50 is 349 nM.

And the TGI (T-47D breast)?
The TGI was 18600 nM.

And the GI50 (TK-10 renal)?
Its GI50 is 10300 nM.

And the TGI (TK-10 renal)?
Its TGI is 36100 nM.

And the GI50 (U251 CNS)?
Its GI50 is 607 nM.

And the TGI (U251 CNS)?
Its TGI is 16300 nM.

What about the GI50 (UACC-257 melanoma) of the same molecule?
Its GI50 is 4620 nM.

And the TGI (UACC-257 melanoma)?
The TGI was 27100 nM.

What about the GI50 (UACC-62 melanoma) of the same molecule?
The GI50 was 433 nM.

What about the TGI (UACC-62 melanoma) of the same molecule?
The TGI was 14500 nM.

And the GI50 (UO-31 renal)?
Its GI50 is 498 nM.

And the TGI (UO-31 renal)?
Its TGI is 15900 nM.
